Data published in patent publication US9814714B2, “Kinase modulation, and indications therefor” (Plexxikon Inc., priority 2015, dated 2017).
Where two headings read alike, the source gives them in different places.

What was measured:
Type in all cases: cell-based
[1] = system: pERK in HCT116 cells (KRAS^G13D); assay: Phospho-ERK AlphaScreen assay, pERK activation in HCT116; details: Homo sapiens, HCT-116
Experimental: (§1) Phospho-ERK AlphaScreen® assay: The degree of ERK phosphorylation was determined using an AlphaScreen® assay where an increase in ERK1/2 phosphorylation at Thr202/Tyr204 brought the donor and acceptor AlphaScreen® beads into close proximity, generating a signal for quantification. To determine the effects of compound treatment on phosphorylation of ERK1/2, cells were plated in a 96-well plate and treated with an 8-point titration of compound for one hour at 37° C. before lysis. To detect pERK, cell lysates were incubated with streptavidin-coated AlphaScreen® donor beads, anti-mouse IgG AlphaScreen® acceptor beads, a biotinylated anti-ERK1/2 rabbit antibody, and a mouse antibody that recognizes ERK1/2 only when it is phosphorylated on Thr202 and Tyr204. The biotinylated ERK1/2 antibody binds to both the streptavidin-coated AlphaScreen® donor beads and to ERK1/2 (regardless of its phosphorylation state), and the phospho-ERK1/2 antibody binds to the acceptor beads and to ERK1/2 that is phosphorylated at Thr202/Tyr204. An increase in ERK1/2 phosphorylation at Thr202/Tyr204 brings the donor and acceptor AlphaScreen® beads into close proximity, generating a signal that can be quantified on an EnVision reader (Perkin Elmer).
(§2) Using AlphaScreen® technology, the ability of Formula I to affect the phosphorylation of ERK and MEK in the cells was measured quantitatively. Following treatment with compound, the cells were lysed, and a sample of the lysate was transferred to an assay plate. The lysate was mixed with antibodies directed against total ERK/MEK, antibodies that recognize specific phosphorylation sites on ERK/MEK, AlphaScreen® anti-mouse IgG Acceptor beads, and Streptavidin Donor beads. Upon excitation of the donor beads with laser light at 680 nm, singlet oxygen was produced. This singlet oxygen was rapidly quenched, unless the AlphaScreen® Acceptor beads were in close proximity, in which case a proximity signal can be measured at 580 nm. In the presence of phosphorylated ERK/MEK, there is a very strong proximity signal.
(§3) 1. One day before the assay, 50,000 cells were plated in each well of a 96-well tissue-culture-treated plate (Corning #3610) in a 50 μL volume. Cells were incubated at 37° C. overnight.
(§4) 2. Compounds were diluted in DMSO to 500× final concentration. Each compound was plated as an 8-point titration, using 1:3 dilutions in DMSO. The maximum concentration was about 5 mM.
(§5) 3. 1 μl of compound was added to each well of a 96-well polypropylene plate (Corning #3363). For A375, COLO829, SK-MEL-3, HCT116, and HT-29, the high control was DMSO, and the low control was 10 μM PLX4720 (CAS No. 918505-84-7). For B9 and IPC-298, the high control was 3.33 μM PLX4720, and the low control was DMSO. 4. 249 μL growth media was added to compounds, diluting them 250-fold. 5. […] The compound was incubated with the cells at 37° C. for one hour. 6. The media was aspirated, and the cells were lysed in 50 μL of ice-cold 1× Cell Lysis buffer. The plates were incubated on ice for 5 minutes to allow complete lysis of the cells. 7. A mixture of biotinylated donor antibody, acceptor antibody, and anti-mouse IgG AlphaScreen® acceptor beads in 1× AlphaLISA immunoassay buffer was prepared. 8. 5 μL of lysate was transferred to a 384-well assay plate (Perkin Elmer #6005359). 5 μL of the antibody and acceptor bead mixture was added. The plates were spinned.

COLO829 cells = assay: Growth inhibition assay (CellTiter-Glo), COLO829; details: Homo sapiens
Experimental: Growth inhibition assay: Cells were plated into a 96-well plate at a density of 3000 cells per well and allowed to adhere overnight. Compounds were dissolved in DMSO, diluted 3-fold to create an 8-point titration and added to cells. After a 72-hour incubation, cell viability was examined using CellTiter-Glo® (Promega).
In order to determine the effects of Formula I on proliferation, a growth assay was established using melanoma cells (A375 and COLO829) and colorectal carcinoma cells (COLO205, HT-29) which each express the BRAFV600E mutation. To show selectivity over wild-type BRAF, several BRAF wild-type cell lines (K562, NOMO-1, MV-4-11 and ML-2) were also examined in the growth assay. The growth assay implemented the Promega CellTiter-Glo Luminescent Cell viability assay, which gives a luminescent readout that is proportional to the amount of ATP present in a cell sample. As ATP levels directly correlate with the number of viable cells, the luminescent signal can be used to determine the potency of Formula I to block the proliferation of the cell lines of interest.
1. 3,000 cells were plated in each well for cell lines A375, COLO205, COLO829, HT-29, and SK-MEL-3. 25,000 cells were plated in each well for cell lines K562, ML-2, MV-4-11, and
NOMO-1 of a 96-well tissue-culture-treated plate (Corning #3610) in a 50 μL volume. Cells were incubated overnight at 37° C.
2. Each test compound was plated as an 8-point titration, using 1:3 dilutions in DMSO. The maximum concentration was about 5 mM. Dilute DMSO and test compound of Formula I 1:250 in growth media.
3. 50 μL of the diluted compound was transferred into 50 μL cells, for a 500-fold final compound dilution (maximum concentration is typically 10 μM and DMSO concentration is 0.2%). The cells were incubated with DMSO/compound for 3 days at 37° C. in 5% CO2.
4. Cell Titer-Glo Luminescent Assay Reagent was brought to room temperature and reconstituted as directed in the product manual. The cell cultures were also brought to room temperature for about 20-30 minutes. […] Luminescence was measured on a Tecan Safire plate reader. […]

[2] = system: pERK in A375 cells (BRAF^V600E, homozygous); assay: Phospho-ERK AlphaScreen assay, pERK inhibition in A375; details: Homo sapiens, A-375, 1 h, read-out: pERK inhibition IC50 A375
Experimental: as §1, §2, §3, §4, §5

COLO205 cells = assay: Growth inhibition assay (CellTiter-Glo), COLO205; details: Homo sapiens
Experimental: Cells were incubated overnight at 37° C.
2. […] The maximum concentration was about 5 mM.

[3] = system: pERK in COLO829 cells (BRAF^V600E, heterozygous); assay: Phospho-ERK AlphaScreen assay, pERK inhibition in COLO829; details: Homo sapiens, COLO-829, 1 h, read-out: pERK inhibition IC50 COLO829
Experimental: as §1, §2, §3, §4, §5

[4] = HCT116, KRAS^G13D, concentration increasing pERK to 50% compared to positive control 10 μM PLX4720, read-out: pERK activation EC50 HCT116
[5] = read-out: pERK activation Mean EC50, HCT116
[6] = COLO-829, 72-hour incubation, read-out: In vitro growth inhibition IC50, COLO829
[7] = A375, BRAF^V600E homozygous, one hour treatment
[8] = COLO 205, 72-hour incubation, read-out: In vitro growth inhibition IC50, COLO205
[9] = COLO829, BRAF^V600E heterozygous, one hour treatment

| EC50 [1, 4] [nM] | IC50 (COLO829 cells; [6]) [nM] | IC50 [2, 7] [nM] | IC50 (COLO205 cells; [8]) [nM] | IC50 [3, 9] [nM] | SMILES | EC50 [1, 5] [nM] | IC50 (COLO829 cells; COLO-829, 72 h, Table 4, melanoma, BRAF V600E/WT, RAS WT, 3 days, read-out: Growth IC50 Colo829) [nM] | IC50 [2] [nM] | IC50 (COLO205 cells; COLO 205, 72 h, Table 4, colorectal adenocarcinoma, BRAF V600E/WT, RAS WT, 3 days, read-out: Growth IC50 Colo205) [nM] | IC50 [3] [nM] |
| --- | --- | --- | --- | --- | --- | --- | --- | --- | --- | --- |
| > 200000 | 530 | 3.5 | 160 | 2.1 | CCN(C)S(=O)(=O)Nc1ccc(F)c(C(=O)c2c[nH]c3ncc(-c4cnc(C5CC5)nc4)cc23)c1F [Formula II, 5-(2-cyclopropylpyrimidin-5-yl)-3-[3-[[ethyl(methyl)sulfamoyl]amino]-2,6-difluoro-benzoyl]-1H-pyrrolo[2,3-b]pyridine] |  |  |  |  |  |
| 340 | 690 | 32 | 250 | 41 | CCCS(=O)(=O)Nc1ccc(F)c(C(=O)c2c[nH]c3ncc(-c4ccc(Cl)cc4)cc23)c1F [Vemurafenib, vemurafenib, reference compound] | 286 |  |  |  |  |

| SMILES | EC50 [1, 4] [nM] | IC50 (COLO829 cells; [6]) [nM] | IC50 [2, 7] [nM] | IC50 (COLO205 cells; [8]) [nM] | IC50 [3, 9] [nM] | EC50 [1, 5] [nM] | IC50 (COLO829 cells; COLO-829, 72 h, Table 4, melanoma, BRAF V600E/WT, RAS WT, 3 days, read-out: Growth IC50 Colo829) [nM] | IC50 [2] [nM] | IC50 (COLO205 cells; COLO 205, 72 h, Table 4, colorectal adenocarcinoma, BRAF V600E/WT, RAS WT, 3 days, read-out: Growth IC50 Colo205) [nM] | IC50 [3] [nM] |
| --- | --- | --- | --- | --- | --- | --- | --- | --- | --- | --- |
| O=C(c1c(F)ccc(NS(=O)(=O)N2CC[C@@H](F)C2)c1F)c1c[nH]c2ncc(-c3cnc(C4CC4)nc3)cc12 [Formula I, (3R)—N-[3-[5-(2-cyclopropylpyrimidin-5-yl)-1H-pyrrolo[2,3-b]pyridine-3-carbonyl]-2,4-difluorophenyl]-3-fluoropyrrolidine-1-sulfonamide] | > 200000 |  |  |  |  | 10000 | 100 | 16 | 10 | 18 |
